“Also recorded” adds a separate entry of the source.

The test system of the test is ADAM12+ CAFs. Briefly: Depletion of ADAM12+ CAFs by diphtheria toxin in M12-DTR mice bearing murine melanoma (MO5). Format: in vivo, mouse.
Setting [1] is: M12-DTR+DT vs tumors with normal stroma, melanoma.

As to diphtheria toxin [DT], the “depletion of ADAM12+ CAFs” value (M12-DTR mice, DT ip starting at day 9 or 10 after melanoma cell inoculation) is “specifically depleted”. Besides, under “M12-DTR+DT vs control (DTR negative) mice, melanoma, immunofluorescence, two or three weeks after inoculation”, the “density of CD31+ vessels inside the tumors” value is on record as “higher density”. Further, the “tumor perfusion (positive area of Hoechst 33342 staining)” value (M12-DTR+DT vs control mice, melanoma, Hoechst 33342 iv) is given as “increased perfusion”. The “activation of CD31+ vessels (ICAM1+)” value (M12-DTR+DT vs control mice, melanoma, immunofluorescence) was “activated ICAM1+ phenotype”. Further, under “M12-DTR+DT vs mice with normal tumor stroma, murine melanoma model”, the tumor growth entry is “significantly delayed; also recorded: decrease in tumor growth”. Also, under setting [1], the “frequency of CD3+ T cells in tumor” value is “significantly higher frequency; also recorded: higher T cells (CD3+) infiltration”; the “percentage of myeloid-derived suppressor cells (MDSC) and T-regulator cells (Tregs)” value was “remained unchanged”; the “ratio of M1/M2 macrophages” value is reported as “increased ratio”. The “location of CD3+ T cells in tumor” value (M12-DTR+DT vs tumors with normal stroma, melanoma, histology) was “recruited to the core of the tumor”.

For the origin of these results see patent publication US11780934B2, “Use of inhibitors of ADAM12 as adjuvants in tumor therapies” (INSTITUT PASTEUR, priority 2016, dated 2023).
